From ChEMBL document CHEMBL4311981, “Synthesis, anticancer activity, and molecular modeling of 1,4-naphthoquinones that inhibit MKK7 and Cdc25” (Eur J Med Chem, 2019) come the findings set out here.

Molecules are shown by their SMILES. The source made the active and inactive calls. No cut-off for these calls is given here.

Assay [1] relates to U-937. As to the kind of experiment: Cytotoxicity against human U937 cells assessed as reduction in cell viability incubated for 24 hrs by CellTiter-Glo luminescent cell viability assay. Type of assay: functional, cell-based. The following applies: U-937, 24 h. (In ATP-based viability assays light output follows the ATP content of the culture.)
The target of assay [2] is T1, M-phase inducer phosphatase 2 (Homo sapiens, UniProt P30305).
T1 sequence (P30305 whole entry): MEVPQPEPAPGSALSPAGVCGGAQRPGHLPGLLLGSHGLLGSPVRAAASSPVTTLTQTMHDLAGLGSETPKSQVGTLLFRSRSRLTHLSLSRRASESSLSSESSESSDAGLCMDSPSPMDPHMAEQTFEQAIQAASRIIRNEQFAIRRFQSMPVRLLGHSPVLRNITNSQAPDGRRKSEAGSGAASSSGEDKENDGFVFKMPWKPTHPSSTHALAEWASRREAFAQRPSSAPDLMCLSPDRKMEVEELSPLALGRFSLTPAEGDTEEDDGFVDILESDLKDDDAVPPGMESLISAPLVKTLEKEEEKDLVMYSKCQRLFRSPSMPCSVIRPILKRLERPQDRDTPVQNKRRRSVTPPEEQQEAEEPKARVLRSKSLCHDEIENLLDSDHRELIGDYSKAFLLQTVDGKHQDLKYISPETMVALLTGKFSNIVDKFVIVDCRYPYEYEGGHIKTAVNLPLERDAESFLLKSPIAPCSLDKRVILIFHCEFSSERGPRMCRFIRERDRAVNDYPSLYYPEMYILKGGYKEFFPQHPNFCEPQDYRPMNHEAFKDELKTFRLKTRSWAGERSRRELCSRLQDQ
Description: Inhibition of recombinant Cdc25B (unknown origin) using OMFP as substrate measured every 30 sec for 10 mins by fluorometric assay

Assay [3] has as its system THP-1. The assay is described as follows: Cytotoxicity against human THP1 cells assessed as reduction in cell viability incubated for 24 hrs by CellTiter-Glo luminescent cell viability assay. Type of assay: functional, cell-based. As to conditions: THP-1, 24 h.
Assay [4] concerns MONO-MAC-6. The assay is described as follows: Cytotoxicity against human MONO-MAC-6 cells assessed as reduction in cell viability incubated for 24 hrs by CellTiter-Glo luminescent cell viability assay. As to conditions: MONO-MAC-6, 24 h. Type of assay: functional, cell-based.
The target of assay [5] is T2, Neutrophil elastase (Homo sapiens) (UniProt P08246).
T2 sequence (whole entry): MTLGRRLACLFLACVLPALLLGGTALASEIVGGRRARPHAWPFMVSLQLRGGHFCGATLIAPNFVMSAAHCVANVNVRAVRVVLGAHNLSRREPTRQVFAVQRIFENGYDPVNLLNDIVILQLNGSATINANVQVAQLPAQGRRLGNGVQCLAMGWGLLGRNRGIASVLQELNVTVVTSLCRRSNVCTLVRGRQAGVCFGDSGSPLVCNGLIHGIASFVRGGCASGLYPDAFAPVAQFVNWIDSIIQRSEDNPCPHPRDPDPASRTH
As to the kind of experiment: Inhibition of recombinant HNE (unknown origin) at <50 uM using N-methylsuccinyl-Ala-Ala-Pro-Val-7-amino-4-methylcoumarin, as a substrate measured every 30 sec for 10 mins by fluorometric assay.

For assay [6], the system named is Jurkat. As to the kind of experiment: cells. As to conditions: Homo sapiens, 24 h.
Description: Cytotoxicity against human Jurkat cells assessed as reduction in cell viability incubated for 24 hrs by CellTiter-Glo luminescent cell viability assay
Assay [7] has as its target T3, M-phase inducer phosphatase 1 (Homo sapiens, UniProt P30304).
T3 sequence (P30304 whole entry): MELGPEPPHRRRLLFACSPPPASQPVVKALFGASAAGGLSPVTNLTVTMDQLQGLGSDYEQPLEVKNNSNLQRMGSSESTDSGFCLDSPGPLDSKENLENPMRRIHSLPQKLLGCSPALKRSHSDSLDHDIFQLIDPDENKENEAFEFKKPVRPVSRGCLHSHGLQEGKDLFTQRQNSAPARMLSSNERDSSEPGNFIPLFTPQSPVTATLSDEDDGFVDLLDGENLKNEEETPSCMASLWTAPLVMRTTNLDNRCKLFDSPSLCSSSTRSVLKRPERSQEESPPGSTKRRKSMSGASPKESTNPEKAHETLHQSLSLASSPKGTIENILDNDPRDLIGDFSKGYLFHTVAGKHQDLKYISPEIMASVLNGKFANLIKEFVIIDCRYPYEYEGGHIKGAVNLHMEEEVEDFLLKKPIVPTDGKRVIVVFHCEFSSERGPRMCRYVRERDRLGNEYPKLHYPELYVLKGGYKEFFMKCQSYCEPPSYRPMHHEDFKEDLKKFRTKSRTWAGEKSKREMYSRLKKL
Description: Inhibition of recombinant Cdc25A (unknown origin) using OMFP as substrate measured every 30 sec for 10 mins by fluorometric assay

The subject of assay [8] is HL-60. The assay is described as follows: Cytotoxicity against human HL60 cells assessed as reduction in cell viability incubated for 24 hrs by CellTiter-Glo luminescent cell viability assay. Type of assay: functional, cell-based. The following applies: HL-60, 24 h.
The subject of assay [9] is PBMC. As to the kind of experiment: Cytotoxicity against human PBMC cells assessed as reduction in cell viability incubated for 24 hrs by CellTiter-Glo luminescent cell viability assay. The following applies: read-out: IC50. Type of assay: cell-based.
Assay [10] concerns SW982. The assay is described as follows: Cytotoxicity against human SW982 cells assessed as reduction in cell viability incubated for 24 hrs by CellTiter-Glo luminescent cell viability assay. Type of assay: functional, cell-based. As to conditions: SW982, 24 h.
The target in assay [11] is T4, Dual specificity mitogen-activated protein kinase kinase 7 (Homo sapiens, UniProt O14733).
T4 sequence (O14733 whole entry): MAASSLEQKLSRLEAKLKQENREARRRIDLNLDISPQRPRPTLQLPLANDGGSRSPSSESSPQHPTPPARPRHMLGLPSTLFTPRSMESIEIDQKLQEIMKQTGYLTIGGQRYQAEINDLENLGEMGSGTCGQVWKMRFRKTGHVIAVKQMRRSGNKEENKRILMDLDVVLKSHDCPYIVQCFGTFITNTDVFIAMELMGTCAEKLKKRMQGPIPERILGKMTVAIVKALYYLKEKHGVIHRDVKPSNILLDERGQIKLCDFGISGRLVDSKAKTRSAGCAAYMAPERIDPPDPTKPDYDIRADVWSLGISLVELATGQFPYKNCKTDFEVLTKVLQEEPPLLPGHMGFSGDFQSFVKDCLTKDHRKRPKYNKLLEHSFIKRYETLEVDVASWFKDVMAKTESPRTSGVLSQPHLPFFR
The assay is described as follows: biochemical.
Description: Binding affinity to MKK7 (unknown origin) expressed in HEK293 cells assessed as dissociation constant by kinomescan method

In assay [12] the target is T5, Dual specificity mitogen-activated protein kinase kinase 7 (Homo sapiens) (UniProt O14733).
T5 sequence (whole entry): T4 sequence (O14733 whole entry)
As to the kind of experiment: Binding affinity to MKK7 (unknown origin) expressed in HEK293 cells assessed as dissociation constant at <30 uM by kinomescan method. Type of assay: cell-based.

Assay [13] addresses T6, M-phase inducer phosphatase 2 (Homo sapiens) (UniProt P30305).
T6 sequence (whole entry): T1 sequence (P30305 whole entry)
As to the kind of experiment: Inhibition of recombinant Cdc25B (unknown origin) at <50 uM using OMFP as substrate measured every 30 sec for 10 mins by fluorometric assay.

For assay [14], the target named is T7, M-phase inducer phosphatase 1 (Homo sapiens) (UniProt P30304).
T7 sequence (whole entry): T3 sequence (P30304 whole entry)
The assay is described as follows: Inhibition of recombinant Cdc25A (unknown origin) at <50 uM using OMFP as substrate measured every 30 sec for 10 mins by fluorometric assay.

For assay [15], the system named is LS174T. As to the kind of experiment: Cytotoxicity against human LS174T cells assessed as reduction in cell viability incubated for 24 hrs by CellTiter-Glo luminescent cell viability assay. Type of assay: functional, cell-based.
For assay [16], the system named is MCF7. As to the kind of experiment: Cytotoxicity against human MCF7 cells assessed as reduction in cell viability incubated for 24 hrs by CellTiter-Glo luminescent cell viability assay. Type of assay: functional, cell-based. The following applies: MCF7, 24 h.
Assay [17] concerns A549. As to the kind of experiment: Cytotoxicity against human A549 cells assessed as reduction in cell viability incubated for 24 hrs by CellTiter-Glo luminescent cell viability assay. Type of assay: functional, cell-based. As to conditions: A549, 24 h.

A word on the IC50: it is the concentration that gives 50% inhibition. The term Kd denotes the equilibrium constant for the complex coming apart. With `O=C(O)CCSC1=CC(=O)c2ccccc2C1=O`, the IC50 is 18.6 µM in assay [1]; 1.6 µM in assay [2]; 17.6 µM in [3]; 22 µM in [4]; 9.1 µM in assay [6]; 1.5 µM in assay [7]. For the same compound, the figures for the IC50 in [8], in assay [9] and in assay [10] were 15 µM, 23.4 µM and 10.5 µM, respectively. In addition, the inhibition result in assay [5] is “inactive”. The compound further had a Kd in assay [11] of 0.23 µM.
Turning to `COC(=O)c1ccc(NC2=C(OC)C(=O)c3ccccc3C2=O)cc1`, the inhibition result in assay [12], in assay [5], in assay [13] and in [14] was “inactive” in each case.
As for `COC1=C(OC)C(=O)c2ccccc2C1=O`, the IC50 in assay [1] is 11.3 µM; in assay [15] it was 27.9 µM; in assay [2] it was 17.4 µM; in assay [3] it was 8.2 µM; in assay [4], 3.6 µM; in [7], 8.9 µM. The IC50 stood at 5.4 µM in [8]; 18.5 µM in [9]; 6.3 µM in assay [16]; 20.6 µM in [10]; 15.6 µM in assay [17]. The inhibition entry in assay [5] was “inactive”. In [11], this compound had a Kd of 27 µM.
`O=C(O)CNC1=C(Cl)C(=O)c2ccccc2C1=O`: the inhibition entry in assay [12], in assay [5] and in assay [13] was “inactive” in each case. The IC50 in assay [7] came out at 36 µM.
For `O=C1C(Cl)=C(NCCCN2CCOCC2)C(=O)c2ccccc21`, the inhibition result in [12], in assay [5], in assay [13] and in assay [14] was “inactive” in each case.
For `O=C1C(Cl)=C(NCCO)C(=O)c2ccccc21`, the inhibition entry in assay [12], in assay [5] and in assay [13] was “inactive” throughout. The IC50 in assay [7] was determined as 45.3 µM.
Take `O=C(O)c1cccc(NC2=C(Cl)C(=O)c3ccccc3C2=O)c1`: the IC50 in assay [1] was 7.6 µM; in assay [15], 11.7 µM; in assay [2], 24.3 µM; in [3], 8.6 µM; in assay [4], 13.4 µM; in [6], 8.2 µM. Also, the IC50 in [7] was found to be 32.9 µM; in assay [8] it was 12.1 µM; in [9], 37.9 µM; in assay [16], 28.5 µM; in [10], 5.5 µM; in [17], 26.2 µM. The inhibition entry in assay [5] is “inactive”. Besides, in assay [11], the Kd was 1.9 µM.
In the case of `COCCSC1=C(C)C(=O)c2ccccc2C1=O`, the IC50 in assay [1] worked out at 5.3 µM; in assay [15], 15.7 µM; in assay [2], 6.5 µM; in assay [3], 2.2 µM; in [4] it was 1.7 µM; in assay [6] it was 3.2 µM. The IC50 in [7] is 5.7 µM; in [8], 1.6 µM; in assay [16], 14.9 µM; in assay [10], 9.7 µM; in [17] it was 18.6 µM. In assay [5], the inhibition entry was “inactive”. Also, the Kd in [11] was determined as 14 µM.
Take `CC(C)(C)[C@H]1CC[C@H](CC2=C(O)C(=O)c3ccccc3C2=O)CC1` [BUPARVAQUONE]: in assay [2], the IC50 worked out at 12 µM. Besides, in assay [12], the result was inactive. Besides, the inhibition result in [5] and in assay [14] was “inactive” each time.
On to `CC1=C(SC(C)C)C(=O)c2ccccc2C1=O`, for which the IC50 came out at 8.9 µM in assay [1]; 20.8 µM in assay [15]; 9.1 µM in [2]; 3.6 µM in [3]; 2 µM in [4]; 4.7 µM in [6]. Further, the IC50 in assay [7] worked out at 6.3 µM; in assay [8] it was 4.3 µM; in [16], 16.8 µM; in assay [10], 12.8 µM; in assay [17], 24 µM. The inhibition entry in [5] is “inactive”. This compound also yielded a Kd in assay [11] of 13 µM.
Take `O=C1C(SCCO)=C(SCCO)C(=O)c2ccccc21`: the IC50 in assay [1] is 3.9 µM; in [15], 18.1 µM; in assay [4] it was 4.2 µM; in [6], 3.7 µM; in assay [8] it was 1 µM; in assay [9] it was 7.8 µM. Further, the IC50 in [16] was 9.4 µM; in [10], 7.9 µM; in assay [17] it was 13.1 µM. Also, the inhibition result in [5] was “inactive”. The compound also came in with a Kd in assay [11] of 1.1 µM.
Take `O=C1C(Cl)=C(NCCCO)C(=O)c2ccccc21`: the inhibition result in [12], in [5] and in [13] was “inactive” throughout. The IC50 in assay [7] was determined as 45.7 µM.
`CCSC1=C(C)C(=O)c2ccccc2C1=O`: the IC50 in assay [1] worked out at 6.7 µM; in assay [15], 17.3 µM; in assay [2] it was 4.7 µM; in [3], 2.9 µM; in assay [4], 3.3 µM; in assay [6] it was 3.9 µM. For the same compound, the IC50 in assay [7] was found to be 5.5 µM; in [8], 3.1 µM; in [16], 12.2 µM; in [10], 7.8 µM; in assay [17], 21.5 µM. For the same compound, the inhibition entry in [5] is “inactive”. Also, in assay [11], the dissociation constant (Kd) is 13 µM.
